Test results taken from ChEMBL document CHEMBL1136454, “Synthesis and biological activity of N-Acylated ornithine analogues of daptomycin” (Bioorg Med Chem Lett, 2003).
≈ marks a conversion by molar mass, not a printed value.

Key:
[1] = In vivo Tmax was determined in murine septicemia at dose of 50 mg/kg; format: ADME, organism-based; parameters: dose 50 mg/kg; conditions: mouse
[2] = In vivo volume distribution (Vd) was determined in murine septicemia at dose of 50 mg/kg; format: ADME, organism-based; parameters: dose 50 mg/kg; conditions: mouse
[3] = In vivo half life period was determined in murine septicemia at dose of 50 mg/kg; format: ADME, organism-based; parameters: dose 50 mg/kg; conditions: mouse
[4] = In vivo area under curve (AUC) was determined in murine septicemia at dose of 50 mg/kg; format: ADME, organism-based; parameters: dose 50 mg/kg; conditions: mouse
[5] = In vivo Cmax in mice at dose of 50 mg/kg; format: ADME, organism-based; parameters: dose 50 mg/kg; conditions: mouse
[6] = In vivo total clearance was determined in murine septicemia at dose of 50 mg/kg; format: ADME, organism-based; parameters: dose 50 mg/kg; conditions: mouse, read-out: CLtotal (converted)
Enterococcus faecium = test: Antibacterial activity against Enterococcus faecium ATCC 6569; format: functional
Enterococcus faecalis = test: Antibacterial activity against Enterococcus faecalis ATCC 49452; format: functional
Mus musculus = test: Antibacterial activity was determined by protection from death of mice infected by methicillin resistant Staphylococcus aureus (MRSA) upon sc administration of compound after 4 hr of post infection; format: functional; conditions: read-out: PD50
Staphylococcus aureus [7] = test: Antibacterial activity against methicillin resistant Staphylococcus aureus ATCC 43300 (MRSA); format: functional
Staphylococcus aureus [8] = test: Antibacterial activity against methicillin susceptible Staphylococcus aureus ATCC 29213 (MSSA ); format: functional
[9] = In vivo volume distribution (Vd) was determined in murine septicemia at dose of 100 mg/kg; format: ADME, organism-based; parameters: dose 100 mg/kg; conditions: mouse
[10] = In vivo Tmax was determined in murine septicemia at dose of 100 mg/kg; format: ADME, organism-based; parameters: dose 100 mg/kg; conditions: mouse
[11] = In vivo area under curve (AUC) was determined in murine septicemia at dose of 100 mg/kg; format: ADME, organism-based; parameters: dose 100 mg/kg; conditions: mouse
[12] = In vivo Cmax in mice at dose of 100 mg/kg; format: ADME, organism-based; parameters: dose 100 mg/kg; conditions: mouse
[13] = In vivo total clearance was determined in murine septicemia at dose of 100 mg/kg; format: ADME, organism-based; parameters: dose 100 mg/kg; conditions: mouse, read-out: CLtotal (converted)

SMILES | Tmax [1] [h] | Vd [2] [L/kg] | half-life [3] [h] | AUC [4] [µg·h/mL] | Cmax [5] [µg/mL] | clearance [6] [mL/min/kg] | MIC (Enterococcus faecium) [µg/mL] | MIC (Enterococcus faecalis) [µg/mL] | ED50 (Mus musculus) [mg/kg] | MIC (Staphylococcus aureus [7]) [µg/mL] | MIC (Staphylococcus aureus [8]) [µg/mL] | Vd [9] [L/kg] | Tmax [10] [h] | AUC [11] [µg·h/mL] | Cmax [12] [µg/mL] | clearance [13] [mL/min/kg]
CCCCCCCCCC(=O)N[C@@H](Cc1c[nH]c2ccccc12)C(=O)N[C@H](CC(N)=O)C(=O)N[C@@H](CC(=O)O)C(=O)N[C@@H]1C(=O)NCC(=O)N[C@@H](CCCNC(=O)[C@@H](N)CCCCN)C(=O)N[C@@H](CC(=O)O)C(=O)N[C@H](C)C(=O)N[C@@H](CC(=O)O)C(=O)NCC(=O)N[C@H](CO)C(=O)N[C@@H]([C@H](C)CC(=O)O)C(=O)N[C@@H](CC(=O)c2ccccc2N)C(=O)O[C@@H]1C | 0.5 | 0.147 | 1.2 | 589 | 297 | 1.42 | – | – | – | – | – | – | – | – | – | –
CCCCCCCCCC(=O)N[C@@H](Cc1c[nH]c2ccccc12)C(=O)N[C@H](CC(N)=O)C(=O)N[C@@H](CC(=O)O)C(=O)N[C@@H]1C(=O)NCC(=O)N[C@@H](CCCNC(=O)c2c(N)ccc3ccccc23)C(=O)N[C@@H](CC(=O)O)C(=O)N[C@H](C)C(=O)N[C@@H](CC(=O)O)C(=O)NCC(=O)N[C@H](CO)C(=O)N[C@@H]([C@H](C)CC(=O)O)C(=O)N[C@@H](CC(=O)c2ccccc2N)C(=O)O[C@@H]1C [listing 1 of 2 here] | 4 | 0.143 | 5.6 | 2820 | 230 | 0.3 | – | – | – | – | – | – | – | – | – | –
CCCCCCCCCC(=O)N[C@@H](Cc1c[nH]c2ccccc12)C(=O)N[C@H](CC(N)=O)C(=O)N[C@@H](CC(=O)O)C(=O)N[C@@H]1C(=O)NCC(=O)N[C@@H](CCCNC(=O)c2c(N)ccc3ccccc23)C(=O)N[C@@H](CC(=O)O)C(=O)N[C@H](C)C(=O)N[C@@H](CC(=O)O)C(=O)NCC(=O)N[C@H](CO)C(=O)N[C@@H]([C@H](C)CC(=O)O)C(=O)N[C@@H](CC(=O)c2ccccc2N)C(=O)O[C@@H]1C [listing 2 of 2 here] | – | – | – | – | – | – | 6.25 (≈ 3.49 µM) | 6.25 (≈ 3.49 µM) | 2.1 | 0.78 (≈ 0.436 µM) | 0.78 (≈ 0.436 µM) | – | – | – | – | –
CCCCCCCCCC(=O)N[C@@H](Cc1c[nH]c2ccccc12)C(=O)N[C@H](CC(N)=O)C(=O)N[C@@H](CC(=O)O)C(=O)N[C@@H]1C(=O)NCC(=O)N[C@@H](CCCNC(=N)N)C(=O)N[C@@H](CC(=O)O)C(=O)N[C@H](C)C(=O)N[C@@H](CC(=O)O)C(=O)NCC(=O)N[C@H](CO)C(=O)N[C@@H]([C@H](C)CC(=O)O)C(=O)N[C@@H](CC(=O)c2ccccc2N)C(=O)O[C@@H]1C [listing 1 of 2 here] | 0.5 | 0.198 | 2.1 | 766 | 254 | 1.08 | – | – | – | – | – | – | – | – | – | –
CCCCCCCCCC(=O)N[C@@H](Cc1c[nH]c2ccccc12)C(=O)N[C@H](CC(N)=O)C(=O)N[C@@H](CC(=O)O)C(=O)N[C@@H]1C(=O)NCC(=O)N[C@@H](CCCNC(=N)N)C(=O)N[C@@H](CC(=O)O)C(=O)N[C@H](C)C(=O)N[C@@H](CC(=O)O)C(=O)NCC(=O)N[C@H](CO)C(=O)N[C@@H]([C@H](C)CC(=O)O)C(=O)N[C@@H](CC(=O)c2ccccc2N)C(=O)O[C@@H]1C [listing 2 of 2 here] | – | – | – | – | – | – | 6.25 (≈ 3.76 µM) | 12.5 (≈ 7.52 µM) | 0.17 | 0.78 (≈ 0.469 µM) | 0.78 (≈ 0.469 µM) | – | – | – | – | –
CCCCCCCCCC(=O)N[C@@H](Cc1c[nH]c2ccccc12)C(=O)N[C@H](CC(N)=O)C(=O)N[C@@H](CC(=O)O)C(=O)N[C@@H]1C(=O)NCC(=O)N[C@@H](CCCNC(=O)C2Cc3c([nH]c4ccccc34)CN2)C(=O)N[C@@H](CC(=O)O)C(=O)N[C@H](C)C(=O)N[C@@H](CC(=O)O)C(=O)NCC(=O)N[C@H](CO)C(=O)N[C@@H]([C@H](C)CC(=O)O)C(=O)N[C@@H](CC(=O)c2ccccc2N)C(=O)O[C@@H]1C (some centres undefined) | 6 | – | > 6 | – | 418 | – | – | – | – | – | – | – | – | – | – | –
CCCCCCCCCC(=O)N[C@@H](Cc1c[nH]c2ccccc12)C(=O)N[C@H](CC(N)=O)C(=O)N[C@@H](CC(=O)O)C(=O)N[C@@H]1C(=O)NCC(=O)N[C@@H](CCCNC(=O)c2ccccc2N)C(=O)N[C@@H](CC(=O)O)C(=O)N[C@H](C)C(=O)N[C@@H](CC(=O)O)C(=O)NCC(=O)N[C@H](CO)C(=O)N[C@@H]([C@H](C)CC(=O)O)C(=O)N[C@@H](CC(=O)c2ccccc2N)C(=O)O[C@@H]1C [listing 1 of 2 here] | – | – | 2.4 | – | – | – | – | – | – | – | – | 0.23 | 0.5 | 1500 | 464 | 1.1
CCCCCCCCCC(=O)N[C@@H](Cc1c[nH]c2ccccc12)C(=O)N[C@H](CC(N)=O)C(=O)N[C@@H](CC(=O)O)C(=O)N[C@@H]1C(=O)NCC(=O)N[C@@H](CCCNC(=O)c2ccccc2N)C(=O)N[C@@H](CC(=O)O)C(=O)N[C@H](C)C(=O)N[C@@H](CC(=O)O)C(=O)NCC(=O)N[C@H](CO)C(=O)N[C@@H]([C@H](C)CC(=O)O)C(=O)N[C@@H](CC(=O)c2ccccc2N)C(=O)O[C@@H]1C [listing 2 of 2 here] | – | – | – | – | – | – | 6.25 (≈ 3.59 µM) | 12.5 (≈ 7.18 µM) | 1.1 | 1.56 (≈ 0.897 µM) | 0.78 (≈ 0.448 µM) | – | – | – | – | –
CCCCCCCCCC(=O)N[C@@H](Cc1c[nH]c2ccccc12)C(=O)N[C@H](CC(N)=O)C(=O)N[C@@H](CC(=O)O)C(=O)N[C@@H]1C(=O)NCC(=O)N[C@@H](CCCNC(=O)C(N)CCc2c[nH]c3ccccc23)C(=O)N[C@@H](CC(=O)O)C(=O)N[C@H](C)C(=O)N[C@@H](CC(=O)O)C(=O)NCC(=O)N[C@H](CO)C(=O)N[C@@H]([C@H](C)CC(=O)O)C(=O)N[C@@H](CC(=O)c2ccccc2N)C(=O)O[C@@H]1C (some centres undefined) | 1 | 0.216 | 2.8 | 936 | 258 | 0.883 | – | – | – | – | – | – | – | – | – | –
CCCCCCCCCC(=O)N[C@@H](Cc1c[nH]c2ccccc12)C(=O)N[C@H](CC(N)=O)C(=O)N[C@@H](CC(=O)O)C(=O)N[C@@H]1C(=O)NCC(=O)N[C@@H](CCCN)C(=O)N[C@@H](CC(=O)O)C(=O)N[C@H](C)C(=O)N[C@@H](CC(=O)O)C(=O)NCC(=O)N[C@H](CO)C(=O)N[C@@H]([C@H](C)CC(=O)O)C(=O)N[C@@H](CC(=O)c2ccccc2N)C(=O)O[C@@H]1C | 0.5 | 0.251 | 1.7 | 489 | 214 | 1.7 | 1.56 (≈ 0.963 µM) | 1.56 (≈ 0.963 µM) | 0.22 | 0.39 (≈ 0.241 µM) | 0.78 (≈ 0.481 µM) | – | – | – | – | –
